Data as given in ChEMBL document CHEMBL5500324, “The potential of marine-derived piperazine alkaloids: Sources, structures and bioactivities” (Eur J Med Chem, 2024).
Values after ≈ are worked out from the molar mass of the structure shown.

Tests used:
P388 = experiment: Cytotoxicity against mouse P388 cells assessed as cell growth inhibition; format: functional; details: read-out: ED50 (the source's name)
MCF7 [1] = experiment: Cytotoxicity against human MCF7 cells assessed as reduction in cell viability; format: functional, cell-based
HepG2 [2] = experiment: Cytotoxicity against human HepG2 cells assessed as reduction in cell growth; format: functional, cell-based
[3] = Cytotoxicity against human Huh-7 cells assessed as reduction in cell growth; format: toxicity, cell-based
HGC-27 = experiment: Cytotoxicity against human HGC-27 cells assessed as reduction in cell viability by MTT assay; format: functional, cell-based
A549 [4] = experiment: Cytotoxicity against human A549 cells assessed as reduction in cell viability by MTT assay; format: functional, cell-based
UMUC3 = experiment: Cytotoxicity against human UMUC3 cells assessed as reduction in cell viability by MTT assay; format: functional, cell-based
MCF7 [5] = experiment: Cytotoxicity against human MCF7 cells assessed as reduction in cell growth measured after 72 hrs by MTT assay; format: functional, cell-based; details: MCF7, 72 h
BGC-823 = experiment: Cytotoxicity against human BGC-823 cells assessed as reduction in cell growth measured after 72 hrs by MTT assay; format: functional, cell-based; details: BGC-823, 72 h
HeLa = experiment: Cytotoxicity against human HeLa cells assessed as reduction in cell viability measured for 24 hrs by MTT assay; format: functional, cell-based
K562 [6] = experiment: Antiproliferative activity against human K562 cells assessed as reduction in cell growth incubated for 72 hrs by MTT assay; format: functional, cell-based; details: K562, 72 h
HL-60 = experiment: Antiproliferative activity against human HL-60 cells assessed as reduction in cell growth incubated for 72 hrs by MTT assay; format: functional, cell-based; details: HL-60, 72 h
A549 [7] = experiment: Cytotoxicity against human A549 cells assessed as reduction in cell viability measured after 24 hrs by MTT assay; format: functional, cell-based; details: A549, 24 h
HCT-116 = experiment: Antiproliferative activity against human HCT-116 cells assessed as reduction in cell viability incubated for 24 hrs by MTT assay; format: functional, cell-based; details: HCT-116, 24 h
DU-145 = experiment: Cytotoxicity against human DU-145 cells assessed as cell growth inhibition measured after 48 hrs by MTT assay; format: functional, cell-based; details: DU-145, 48 h
QG-56 = experiment: Cytotoxicity against human QG-56 cells assessed as reduction in cell growth incubated for 24 hrs by MTT assay; format: functional, cell-based; details: QG-56, 24 h
NCI-H23 = experiment: Cytotoxicity against human NCI-H23 cells assessed as reduction in cell viability incubated for 48 hrs by MTT assay; format: functional, cell-based; details: NCI-H23, 48 h
NCI-H460 = experiment: Cytotoxicity against human NCI-H460 cells assessed as reduction in cell viability incubated for 48 hrs by MTT assay; format: functional, cell-based; details: NCI-H460, 48 h
[8] = Cytotoxicity against human BEAS-2B cells incubated for 72 hrs measured by MTT assay; format: toxicity, cell-based
HepG2 [9] = experiment: Cytotoxicity against human HepG2 cells assessed as reduction in cell viability incubated for 72 hrs by SRB assay; format: functional, cell-based; details: HepG2, 72 h
SF-268 = experiment: Cytotoxicity against human SF-268 cells assessed as reduction in cell viability incubated for 72 hrs by SRB assay; format: functional, cell-based; details: SF-268, 72 h
[10] = Cytotoxicity against human A2780cis cells assessed as cell growth inhibition by SRB assay; format: functional, cell-based
K562 [11] = experiment: Cytotoxicity against human K562 cells assessed as reduction in cell growth by MTT assay; format: functional, cell-based
L5178Y = experiment: Cytotoxicity against mouse L5178Y cells assessed as reduction in cell growth by MTT assay; format: functional, cell-based
BC = experiment: Cytotoxicity against human BC cells assessed as inhibition of cell growth; format: functional, cell-based
KB = experiment: Cytotoxicity against human KB cells assessed as inhibition of cell growth; format: functional, cell-based
[12] = Cytotoxicity against mouse FM3A tsFT210 cells assessed as inhibition of cell growth; format: functional, cell-based
U-937 = experiment: Cytotoxicity against human U-937 cells assessed as reduction in cell viability; format: functional, cell-based
PC-3 = experiment: Cytotoxicity against human PC-3 cells assessed as reduction in cell viability; format: functional, cell-based
PANC-1 = experiment: Cytotoxicity against human PANC-1 cells assessed as reduction in cell viability; format: functional, cell-based

With `CS[C@H]1C(=O)N2[C@H]3Nc4ccccc4[C@@]3(c3c[nH]c4ccccc34)C[C@]2(SC)C(=O)N1C` as the molecule, how does the EC50 (P388) read?
Its EC50 is 20 µg/mL (≈ 43 µM).

For `COc1ccc2c3c([nH]c2c1)[C@H](C=C(C)C)N1C(=O)[C@]2(O)CCCN2C(=O)[C@@]1(O)[C@H]3OC`, which IC50 (MCF7 [1]) is on record?
Its IC50 is 7.6 µM.

With `C[C@H]1CN2CC[C@]34C[C@@]5(C(=O)Nc6c5ccc5c6C(=O)CC(C)(C)O5)C(C)(C)[C@@H]3[C@@]2(C1)C(=O)N4C` as the molecule, how does the IC50 (HepG2 [2]) read?
Its IC50 is 3.7 µM.

And the IC50 [3]?
The IC50 was 2.8 µM.

Which IC50 (HGC-27) does the source give for `CC(C)C[C@H]1NC(=O)[C@H](CCC(N)=O)n2c1nc1ccccc1c2=O` here?
Its IC50 is 6.2 µM.

What about the IC50 (A549 [4]) of the same molecule?
The IC50 was 6 µM.

And the IC50 (UMUC3)?
The IC50 was 7.2 µM.

What does the source list for `C=CC(C)(C)[C@@]12C[C@H]3C(=O)N[C@@H](Cc4ccccc4)C(=O)N3[C@@H]1N([C@H]1O[C@]3(C[C@@H]1NC(=O)/C=C/C(C)CC(C)CCCCCC)[C@@H]1O[C@@H]1[C@](O)(CC(C)=O)[C@@H]1O[C@@H]13)c1ccccc12` (stereo partly drawn)?
IC50 (MCF7 [5]): 5.4 µM; IC50 (BGC-823): 8 µM; IC50 (HeLa): 9.5 µM; IC50 (K562 [6]): 11.4 µM; IC50 (HL-60): 5.4 µM

Which results are given for `COC1=C(C)C(=O)C2=C(C1=O)[C@@H]1[C@@H]3CC4=C(C(=O)C(OC)=C(C)C4=O)[C@H](CO)N3[C@@H](C#N)[C@H](C2)N1C` [JOURNNAMYCIN A]?
IC50 (A549 [7]): 3.1 µM; IC50 (HCT-116): 0.013 µM; IC50 (DU-145): 0.029 µM; IC50 (QG-56): 0.059 µM; IC50 (NCI-H23): 2.3 µM; IC50 (NCI-H460): 8 µM; IC50 at 72 h [8]: 14.8 µM

Which IC50 (HepG2 [9]) does the source give for `C=CC(C)(C)c1[nH]c2ccccc2c1/C=C1\NC(=O)[C@@]2(CC[C@]3(O)c4cc(C)cc(O)c4C(=O)c4c(O)cc(OC)c2c43)NC1=O` here?
The IC50 was 37.3 µM.

What about the IC50 (SF-268) of the same molecule?
The IC50 was 30.1 µM.

Which results are given for `C[C@]12NC(=O)[C@@H](Cc3c1[nH]c1ccccc31)n1c2nc2ccccc2c1=O`?
IC50 [10]: 38.8 µM; IC50 (K562 [11]): 15 µM; IC50 (L5178Y): 3.6 µM

For `COc1cc2c(cc1O)CCNC21CS[C@@H]2c3c(OC(C)=O)c(C)c4c(c3[C@H](COC1=O)N1[C@@H]2[C@H]2c3c(cc(C)c(OC)c3O)C[C@@H]([C@@H]1C#N)N2C)OCO4` (stereo partly drawn), which IC50 (BC) is on record?
The IC50 was 0.0025 µM.

And the IC50 (HCT-116)?
The IC50 was 0.0004 µM.

What about the IC50 (DU-145) of the same molecule?
Its IC50 is 0.00066 µM.

What about the IC50 (QG-56) of the same molecule?
Its IC50 is 0.0018 µM.

What about the IC50 (KB) of the same molecule?
The IC50 was 0.034 nM.

With `CS[C@]1(CO)C(=O)N2C3C(=CC=CC3O)C[C@@]2(SC)C(=O)N1C` (stereo partly drawn) as the molecule, how does the IC50 [12] read?
Its IC50 is 89.8 µg/mL (≈ 252 µM).

And the IC50 (U-937)?
Its IC50 is 0.52 µM.

What about the IC50 (PC-3) of the same molecule?
The IC50 was 15.9 µM.

For `COc1ccc([C@H]2SS[C@@]34C[C@]5(O)[C@H](Cl)C=C[C@@H](O)[C@@H]5ON3C(=O)[C@@H]2NC4=O)c(O)c1OC`, which IC50 (PANC-1) is on record?
Its IC50 is 0.02 µM.
